Data reported in US9180132B2, “Antimicrobial cationic steroids and methods of use” (The Trustees of the University of Pennsylvania, priority 2010, dated 2015).

Experiments:
GFP-GR = GFP-GR translocation study in BAECs; assay type: cell-based; conditions: 0.01-1 μM, 60-minute treatment
Method: BAECs were seeded at 1×10^5/ml in 24 well plates and allowed to spread overnight. Cells were transfected with GFP-GR chimeric protein by adding 450 ng of DNA complexed with 2 ul of lipofectamine in a 200 ul volume of Optimem media growth to each well of a 24 well plate for ˜1.5 hour. The DNA-lipofectamine complex was then removed and cells placed in DMEM supplemented with 0.5% calf serum. This reduced level of calf serum was used to prevent non-specific translocation of GFP-GR receptor in response to hormones in the serum. […] Analysis of GFP-GR translocation was conducted by counting the number of cells in each field of view, which had GFP-GR nuclear localization compared to total number of cells. ˜40 cells were analyzed per condition.

Water solubility = assay type: physicochemical
Text: The 21-hydroxy group of dexamethasone is not required for anti-inflammatory activity, and therefore is an ideal choice for conjugation to a polycation (FIG. 1A) (Schimmer et al., 1996, in The Pharmacological Basis of Therapeutics, 1459-1485, eds. Hardman and Limbird, McGraw-Hill, New York). […] Traut's reagent is selectively ring-opened by the primary amines (Hermanson, 1996, Bioconjugate Techniques, Academic Press) on spermine, forming a hydrolytically sensitive amidimide bond (Hermanson, 1996, Bioconjugate Techniques, Academic Press) between spermine and iminothiolane and a reactive thiolate anion that reacts with the α-keto mesylate on the 21 position of dexamethasone mesylate (Simmons et al., 1980, J. Org. Chem. […]), yielding an α-keto thioether linkage between the dexamethasone and iminothiolane. Dexamethasone mesylate (prepared or received from Steraloids, N.H.) or dexamethasone (Steraloids, N.H.), 2-iminothiolane (Traut's reagent) (Pierce), spermine (Sigma), and ethanol or DMSO (Aldrich) were used as received. […] For DA, FIG. 1B: Calc: C, 63.26; H, 7.35; N, 2.84. Found: C, 63.44; H, 7.27; N, 2.83.

[1] = tested on: Bovine aortic endothelial cells (BAEC); test: Lipofection of BAEC with EGFP plasmid; assay type: cell-based; conditions: unconjugated, alone
Method: Bovine aortic endothelial cells (BAEC, passage 4-13) were passaged at a 1:3 split to 24-well culture plates, and then grown to dense confluence before lipofection. Growth medium was Dulbecco's modified Eagle's medium (DMEM) containing 10% heat inactivated charcoal-filtered (to remove steroid hormones) fetal calf serum (Hyclone), 0.30 mg/ml glutamine, 150 U/ml penicillin, and 0.15 mg/ml streptomycin (Gibco). […] The plasmids pEGFP-N3 and pGRE-SEAP (Clontech) were used for expression of EGFP or secreted alkaline phosphatase under the regulation of CMV or GRE promoters, respectively. […]
For lipofection, a solution of DS/DOPE in 125 μl OptiMEM I (Gibco) was mixed with a solution of DNA in 125 μl OptiMEM I, incubated for 30 to 60 minutes, and then overlaid on BAEC cells for 2 hours, followed by PBS rinse and addition of growth media. Fluorescence was measured after 48 hours. […] EGFP expression of transfections was monitored in duplicate (FIG. 2A) or triplicate (FIG. 2B) with a fluorescent plate reader (Labsystems Fluoroskan Ascent; 485 nm/538 nm filter pair) with background subtraction using the autofluorescence of non-transfected BAEC. […] Supernatant was collected, and pooled with supernatant from PBS washed and pelleted cells (total volume 750 μl), and EGFP fluorescence was measured (Ex 485, Em 515; SLM fluorometer). […]

Row | Compound | nuclear localization (translocation) of GFP-GR (GFP-GR) | solubility (Water solubility) | gene transfer activity (EGFP expression) [1]
1 | CCCCCCCCNCCC[C@@H](C)[C@H]1CC[C@H]2[C@@H]3[C@H](OCCCN)C[C@@H]4C[C@H](OCCCN)CC[C@]4(C)[C@H]3C[C@H](OCCCN)[C@]12C [CSA-13] | not observed | – | –
2 | CC1C[C@H]2[C@@H]3CCC4=CC(=O)C=C[C@]4(C)[C@@]3(F)C(O)C[C@]2(C)[C@@]1(O)C(=O)CSCCCC(=N)NCCCNCCCCNCCCN (some centres unmarked) [DS, N-[3-({4-[(3-aminopropyl)amino]butyl}amino)propyl]-4-[(9-fluoro-11,17-dihydroxy-16-methyl-3,20-dioxopregna-1,4-dien-21-yl)sulfanyl]butanimidamide] | caused nuclear localization of GFP-GR | > 100 mg/mL | –
3 | NCCCNCCCCNCCCN [Spermine, spermine] | – | – | no detectable gene transfer activity
4 | LL-37: cathelicidin peptide LL37, naturally occurring antibacterial agent (LLGDFFRKSKEKIGKEFKRIVQRIKDFLRNLVPRTES; Antibacterial peptide LL-37; UniProt P49913 134-170, looked up) | not observed | – | –
